In publication PMC10176470, “Engaging a Non-catalytic Cysteine Residue Drives Potent and Selective Inhibition of Caspase-6” (Journal of the American Chemical Society, 2023):

How the values were obtained:
Format in all cases: cell-based
[1] = target: T1, proteins of HEK293T cells transiently overexpressing caspase-6 (Homo sapiens, UniProt O60506); details: exp_ref Probe; protein SYNCRIP (O60506); analysis C6
T1 sequence (O60506 1-623): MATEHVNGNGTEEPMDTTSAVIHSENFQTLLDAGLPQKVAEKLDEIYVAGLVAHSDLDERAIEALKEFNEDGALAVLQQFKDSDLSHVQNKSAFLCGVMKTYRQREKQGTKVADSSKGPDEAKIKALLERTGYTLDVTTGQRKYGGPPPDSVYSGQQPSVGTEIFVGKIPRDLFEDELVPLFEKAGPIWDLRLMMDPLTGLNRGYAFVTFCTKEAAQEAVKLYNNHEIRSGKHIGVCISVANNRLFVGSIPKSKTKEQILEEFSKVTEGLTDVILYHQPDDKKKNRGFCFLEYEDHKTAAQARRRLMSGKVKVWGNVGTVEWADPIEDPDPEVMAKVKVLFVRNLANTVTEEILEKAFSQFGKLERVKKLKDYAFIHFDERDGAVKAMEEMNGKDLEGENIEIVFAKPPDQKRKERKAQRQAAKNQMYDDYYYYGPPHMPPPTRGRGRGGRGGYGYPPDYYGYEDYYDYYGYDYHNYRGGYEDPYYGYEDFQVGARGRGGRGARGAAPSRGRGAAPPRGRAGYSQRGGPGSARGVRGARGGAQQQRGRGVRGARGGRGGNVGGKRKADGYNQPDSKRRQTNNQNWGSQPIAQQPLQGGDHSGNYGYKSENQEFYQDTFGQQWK

[2] = target: proteins of HEK293T cells transiently overexpressing caspase-6 (Homo sapiens, UniProt O95373); details: Probe; protein IPO7 O95373
[3] = target: proteins of HEK293T cells transiently overexpressing caspase-6 (Homo sapiens, UniProt P06733); details: protein ENO1 (P06733)
[4] = target: proteins of HEK293T cells transiently overexpressing caspase-6 (Homo sapiens, UniProt P07814); details: exp_ref Probe; protein EPRS (P07814); analysis C6
[5] = target: proteins of HEK293T cells transiently overexpressing caspase-6 (Homo sapiens, UniProt P08670)
[6] = target: proteins of HEK293T cells transiently overexpressing caspase-6 (Homo sapiens, UniProt P12956); details: protein XRCC6 (P12956)
[7] = target: proteins of HEK293T cells transiently overexpressing caspase-6 (Homo sapiens, UniProt P13804); details: exp_ref Probe; protein ETFA (P13804); analysis C6
[8] = target: proteins of HEK293T cells transiently overexpressing caspase-6 (Homo sapiens, UniProt P42704); details: exp_ref Probe; protein LRPPRC (P42704); analysis C6
[9] = target: proteins of HEK293T cells transiently overexpressing caspase-6 (Homo sapiens, UniProt P43487); details: exp_ref Probe; protein RANBP1 (P43487); analysis C6
[10] = target: proteins of HEK293T cells transiently overexpressing caspase-6 (Homo sapiens, UniProt P46060); details: exp_ref Probe; protein RANGAP1 (P46060); analysis C6
[11] = target: proteins of HEK293T cells transiently overexpressing caspase-6 (Homo sapiens, UniProt P49736); details: Probe; protein MCM2 P49736
[12] = target: proteins of HEK293T cells transiently overexpressing caspase-6 (Homo sapiens, UniProt P50991); details: exp_ref Probe; protein CCT4 (P50991); analysis C6
[13] = target: proteins of HEK293T cells transiently overexpressing caspase-6 (Homo sapiens, UniProt P55884); details: exp_ref Probe; protein EIF3B (P55884); analysis C6
[14] = target: proteins of HEK293T cells transiently overexpressing caspase-6 (Homo sapiens, UniProt P62937); details: exp_ref Probe; protein PPIA (P62937); analysis C6
[15] = target: proteins of HEK293T cells transiently overexpressing caspase-6 (Homo sapiens, UniProt P63261); details: exp_ref Probe; protein ACTG1 (P63261); analysis C6
[16] = target: proteins of HEK293T cells transiently overexpressing caspase-6 (Homo sapiens, UniProt Q9NUU7); details: protein DDX19A (Q9NUU7); exp_ref Probe; analysis C6
[17] = target: T2, proteins of HEK293T cells transiently overexpressing caspase-6 (Homo sapiens, UniProt Q9UQ80); details: protein PA2G4 (Q9UQ80)
T2 sequence (Q9UQ80 1-394): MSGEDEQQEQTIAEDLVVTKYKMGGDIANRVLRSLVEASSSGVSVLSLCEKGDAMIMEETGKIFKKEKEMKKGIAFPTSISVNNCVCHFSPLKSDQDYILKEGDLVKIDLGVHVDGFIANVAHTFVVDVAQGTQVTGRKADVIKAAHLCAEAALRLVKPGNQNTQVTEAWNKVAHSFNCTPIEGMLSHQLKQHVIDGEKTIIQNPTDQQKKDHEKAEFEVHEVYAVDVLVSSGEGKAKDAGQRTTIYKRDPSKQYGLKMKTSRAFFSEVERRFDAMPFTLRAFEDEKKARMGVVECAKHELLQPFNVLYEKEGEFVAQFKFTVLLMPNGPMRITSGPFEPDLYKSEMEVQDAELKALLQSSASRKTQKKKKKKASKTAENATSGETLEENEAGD

proteins of HEK293T cells transiently overexpressing caspase-6 (Homo sapiens, UniProt P12956), sequence (P12956 whole entry): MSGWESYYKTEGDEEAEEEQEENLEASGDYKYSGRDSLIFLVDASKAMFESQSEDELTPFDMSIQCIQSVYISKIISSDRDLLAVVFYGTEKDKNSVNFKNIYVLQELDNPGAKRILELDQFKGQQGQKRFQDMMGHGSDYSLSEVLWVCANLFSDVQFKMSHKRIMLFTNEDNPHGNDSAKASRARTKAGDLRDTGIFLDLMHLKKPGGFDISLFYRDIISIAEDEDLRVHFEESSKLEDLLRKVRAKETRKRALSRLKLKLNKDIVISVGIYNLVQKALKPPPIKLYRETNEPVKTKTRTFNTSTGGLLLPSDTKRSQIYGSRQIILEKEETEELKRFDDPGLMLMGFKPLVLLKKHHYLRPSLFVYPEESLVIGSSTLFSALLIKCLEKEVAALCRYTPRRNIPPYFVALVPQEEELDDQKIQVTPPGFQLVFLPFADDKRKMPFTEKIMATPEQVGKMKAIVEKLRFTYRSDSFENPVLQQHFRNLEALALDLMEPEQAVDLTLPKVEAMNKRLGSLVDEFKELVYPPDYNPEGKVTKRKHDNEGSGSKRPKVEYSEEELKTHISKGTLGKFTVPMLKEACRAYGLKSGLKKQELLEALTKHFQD
proteins of HEK293T cells transiently overexpressing caspase-6 (Homo sapiens, UniProt P06733), sequence (P06733 whole entry): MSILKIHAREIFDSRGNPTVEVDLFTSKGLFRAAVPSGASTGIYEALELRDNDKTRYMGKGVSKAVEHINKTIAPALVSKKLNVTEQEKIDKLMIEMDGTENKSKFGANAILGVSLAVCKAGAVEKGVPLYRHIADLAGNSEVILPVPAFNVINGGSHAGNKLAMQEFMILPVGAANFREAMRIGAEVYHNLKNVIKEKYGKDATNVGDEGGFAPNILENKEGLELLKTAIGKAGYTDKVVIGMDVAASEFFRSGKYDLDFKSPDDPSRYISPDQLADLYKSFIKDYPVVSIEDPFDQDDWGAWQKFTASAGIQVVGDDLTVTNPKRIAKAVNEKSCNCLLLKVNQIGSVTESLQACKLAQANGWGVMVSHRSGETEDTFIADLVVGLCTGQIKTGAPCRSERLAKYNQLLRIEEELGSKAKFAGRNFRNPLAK
proteins of HEK293T cells transiently overexpressing caspase-6 (Homo sapiens, UniProt P08670), sequence (P08670 whole entry): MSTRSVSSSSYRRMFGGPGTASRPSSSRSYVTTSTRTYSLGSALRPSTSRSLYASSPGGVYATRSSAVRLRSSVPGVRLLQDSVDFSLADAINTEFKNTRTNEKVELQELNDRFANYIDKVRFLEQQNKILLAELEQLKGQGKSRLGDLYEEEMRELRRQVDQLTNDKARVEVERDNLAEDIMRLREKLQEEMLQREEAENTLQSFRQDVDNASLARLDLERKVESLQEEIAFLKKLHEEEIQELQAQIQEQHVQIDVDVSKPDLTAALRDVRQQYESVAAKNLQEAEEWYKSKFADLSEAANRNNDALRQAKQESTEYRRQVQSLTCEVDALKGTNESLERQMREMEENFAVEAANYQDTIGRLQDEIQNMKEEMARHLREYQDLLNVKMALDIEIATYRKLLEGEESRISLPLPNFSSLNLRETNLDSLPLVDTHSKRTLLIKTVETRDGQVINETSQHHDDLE
proteins of HEK293T cells transiently overexpressing caspase-6 (Homo sapiens, UniProt P07814), sequence (P07814 whole entry): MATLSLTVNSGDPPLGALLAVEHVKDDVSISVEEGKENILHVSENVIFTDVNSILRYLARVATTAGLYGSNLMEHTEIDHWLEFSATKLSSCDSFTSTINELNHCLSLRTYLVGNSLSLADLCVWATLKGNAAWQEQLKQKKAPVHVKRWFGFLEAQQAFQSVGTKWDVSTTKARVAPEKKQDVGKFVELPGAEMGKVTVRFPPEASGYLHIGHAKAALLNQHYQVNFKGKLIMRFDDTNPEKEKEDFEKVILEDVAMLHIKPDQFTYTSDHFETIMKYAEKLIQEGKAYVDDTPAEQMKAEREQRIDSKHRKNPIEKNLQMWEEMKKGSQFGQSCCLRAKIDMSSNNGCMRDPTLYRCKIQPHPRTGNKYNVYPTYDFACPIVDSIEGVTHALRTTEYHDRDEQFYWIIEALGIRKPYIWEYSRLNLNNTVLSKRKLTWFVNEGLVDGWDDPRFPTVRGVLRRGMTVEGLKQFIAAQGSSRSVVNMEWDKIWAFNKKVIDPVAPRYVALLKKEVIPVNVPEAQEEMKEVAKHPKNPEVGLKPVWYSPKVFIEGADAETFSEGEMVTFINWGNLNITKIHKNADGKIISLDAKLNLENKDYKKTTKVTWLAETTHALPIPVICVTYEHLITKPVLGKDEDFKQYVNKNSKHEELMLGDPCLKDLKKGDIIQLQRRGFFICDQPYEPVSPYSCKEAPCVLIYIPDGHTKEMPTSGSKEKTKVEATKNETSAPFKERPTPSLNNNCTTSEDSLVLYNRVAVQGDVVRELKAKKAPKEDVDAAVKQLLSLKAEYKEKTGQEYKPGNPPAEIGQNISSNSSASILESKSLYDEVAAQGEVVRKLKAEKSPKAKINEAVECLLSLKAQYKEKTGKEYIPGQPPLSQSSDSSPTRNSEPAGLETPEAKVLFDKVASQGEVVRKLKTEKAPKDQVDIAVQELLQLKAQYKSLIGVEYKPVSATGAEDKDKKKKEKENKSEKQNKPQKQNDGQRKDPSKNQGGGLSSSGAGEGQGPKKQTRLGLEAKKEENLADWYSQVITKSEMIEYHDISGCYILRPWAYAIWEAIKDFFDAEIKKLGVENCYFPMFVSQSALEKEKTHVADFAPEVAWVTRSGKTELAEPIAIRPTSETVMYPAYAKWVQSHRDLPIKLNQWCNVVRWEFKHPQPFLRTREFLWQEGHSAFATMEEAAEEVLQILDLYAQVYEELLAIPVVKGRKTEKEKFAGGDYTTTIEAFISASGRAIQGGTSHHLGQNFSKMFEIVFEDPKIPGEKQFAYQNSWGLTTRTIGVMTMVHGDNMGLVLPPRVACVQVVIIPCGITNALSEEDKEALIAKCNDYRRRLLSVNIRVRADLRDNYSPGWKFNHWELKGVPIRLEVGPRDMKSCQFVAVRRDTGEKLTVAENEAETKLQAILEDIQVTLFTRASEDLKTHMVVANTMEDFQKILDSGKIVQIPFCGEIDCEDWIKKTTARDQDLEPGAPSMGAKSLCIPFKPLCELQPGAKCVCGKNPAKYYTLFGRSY
proteins of HEK293T cells transiently overexpressing caspase-6 (Homo sapiens, UniProt P13804), sequence (P13804 20-333): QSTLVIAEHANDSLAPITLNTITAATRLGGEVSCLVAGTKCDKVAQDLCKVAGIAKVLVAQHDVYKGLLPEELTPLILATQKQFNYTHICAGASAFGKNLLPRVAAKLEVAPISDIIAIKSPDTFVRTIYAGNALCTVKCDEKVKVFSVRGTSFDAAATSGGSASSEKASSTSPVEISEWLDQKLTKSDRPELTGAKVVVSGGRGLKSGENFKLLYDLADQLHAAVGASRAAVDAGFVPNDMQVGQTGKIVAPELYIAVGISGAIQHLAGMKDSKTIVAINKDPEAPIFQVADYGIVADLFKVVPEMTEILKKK
proteins of HEK293T cells transiently overexpressing caspase-6 (Homo sapiens, UniProt P50991), sequence (P50991 whole entry): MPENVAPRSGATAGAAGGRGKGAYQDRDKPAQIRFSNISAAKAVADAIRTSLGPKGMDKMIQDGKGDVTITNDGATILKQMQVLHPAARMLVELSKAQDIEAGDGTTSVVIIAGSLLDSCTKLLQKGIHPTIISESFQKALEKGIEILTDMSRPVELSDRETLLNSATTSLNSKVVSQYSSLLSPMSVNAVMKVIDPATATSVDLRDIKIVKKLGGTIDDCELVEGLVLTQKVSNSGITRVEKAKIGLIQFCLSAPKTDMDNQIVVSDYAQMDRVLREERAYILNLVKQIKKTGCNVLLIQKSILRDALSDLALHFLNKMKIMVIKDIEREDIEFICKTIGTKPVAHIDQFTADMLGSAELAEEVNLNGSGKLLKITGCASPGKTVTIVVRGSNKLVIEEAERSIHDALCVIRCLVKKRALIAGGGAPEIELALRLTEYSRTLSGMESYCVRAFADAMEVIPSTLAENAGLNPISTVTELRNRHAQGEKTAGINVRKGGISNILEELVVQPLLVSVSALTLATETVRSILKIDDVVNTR
proteins of HEK293T cells transiently overexpressing caspase-6 (Homo sapiens, UniProt P43487), sequence (P43487 whole entry): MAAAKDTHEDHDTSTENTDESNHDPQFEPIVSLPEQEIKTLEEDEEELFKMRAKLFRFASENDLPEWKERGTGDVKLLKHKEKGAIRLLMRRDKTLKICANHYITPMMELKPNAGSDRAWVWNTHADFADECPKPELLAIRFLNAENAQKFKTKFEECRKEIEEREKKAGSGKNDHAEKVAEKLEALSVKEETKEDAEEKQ
proteins of HEK293T cells transiently overexpressing caspase-6 (Homo sapiens, UniProt P55884), sequence (P55884 whole entry): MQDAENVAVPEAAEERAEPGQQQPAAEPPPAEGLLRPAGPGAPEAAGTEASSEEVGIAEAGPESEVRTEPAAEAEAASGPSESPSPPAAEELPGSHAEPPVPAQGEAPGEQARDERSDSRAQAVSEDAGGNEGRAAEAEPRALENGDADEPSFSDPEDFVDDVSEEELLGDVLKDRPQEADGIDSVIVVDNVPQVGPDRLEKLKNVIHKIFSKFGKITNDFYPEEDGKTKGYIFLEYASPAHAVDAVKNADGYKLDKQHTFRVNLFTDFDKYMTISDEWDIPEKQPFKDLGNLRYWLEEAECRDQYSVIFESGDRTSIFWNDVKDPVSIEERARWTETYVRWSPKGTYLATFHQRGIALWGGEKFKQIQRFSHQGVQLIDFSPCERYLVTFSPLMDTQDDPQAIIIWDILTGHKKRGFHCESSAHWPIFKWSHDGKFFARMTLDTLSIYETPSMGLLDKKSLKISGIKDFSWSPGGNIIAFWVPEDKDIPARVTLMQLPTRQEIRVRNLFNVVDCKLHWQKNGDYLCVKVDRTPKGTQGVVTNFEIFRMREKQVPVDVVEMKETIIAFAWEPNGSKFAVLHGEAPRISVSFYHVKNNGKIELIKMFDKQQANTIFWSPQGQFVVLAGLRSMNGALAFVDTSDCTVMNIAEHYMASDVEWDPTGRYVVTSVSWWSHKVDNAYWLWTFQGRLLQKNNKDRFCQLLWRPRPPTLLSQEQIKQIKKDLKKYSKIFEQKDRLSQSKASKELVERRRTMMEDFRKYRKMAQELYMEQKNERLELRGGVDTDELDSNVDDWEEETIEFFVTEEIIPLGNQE

SMILES: C#CCOc1ccc([C@@H]2C[C@@H](C(=O)Nc3ccc(OC(F)(F)F)cc3)CN(S(=O)(=O)C=C)C2)cc1 (relative stereo) [13-t]
- enrich.exp.med [1]: 0.8584
- enrich.exp.med [2]: -0.5106
- enrich.exp.med ([3]; exp_ref Probe, analysis C6): 0.5104
- enrich.exp.med.lin [3]: 1.424
- enrich.exp.med.log2 [3]: 0.5104
- enrich.exp.med [4]: 0.5173
- enrich.exp.med ([5]; Probe, protein VIM P08670): -1.006
- enrich.exp.med.lin ([5]; protein VIM (P08670)): 0.4978
- enrich.exp.med.log2 ([5]; protein VIM (P08670)): -1.006
- enrich.exp.med ([6]; exp_ref Probe, analysis C6): 1.036
- enrich.exp.med.lin [6]: 2.05
- enrich.exp.med.log2 [6]: 1.036
- enrich.exp.med [7]: 0.5734
- enrich.exp.med [8]: 0.2022
- enrich.exp.med [9]: 0.3695
- enrich.exp.med [10]: 0.1212
- enrich.exp.med [11]: -1.091
- enrich.exp.med [12]: 0.3881
- enrich.exp.med [13]: 0.2575
- enrich.exp.med [14]: -0.06908
- enrich.exp.med [15]: 0.6252
- enrich.exp.med [16]: 1.908
- enrich.exp.med.lin [17]: 2.618
- enrich.exp.med.log2 [17]: 1.389
- enrich.exp.med ([17]; exp_ref Probe, analysis C6): 1.389
